These are literature values, as cited in patent US7410504B2, “Adducts based on cyclic compounds and the use thereof as tanning agents and curing agents” (BASF Aktiengesellschaft, priority 2003, dated 2008).

The structures appear in SMILES notation.

For the data set the following is noted: small amounts of glutaraldehyde, from 0.5 to 0.9% by weight based on the pelt weight.

Turning to `O=CCCCC=O` [glutaraldehyde], the Shrinkage temperature was no more than 70 °C.
